In patent US11208400B2, “Substituted 6-(1H-pyrazol-1-yl)pyrimidin-4-amine derivatives and uses thereof” (Bayer Aktiengesellschaft, priority 2016, dated 2021):

Biological target: T1, human Npt2a (Homo sapiens, UniProt Q06495)
T1 construct: expressed in transfected cells
T1 sequence (Q06495 1-639): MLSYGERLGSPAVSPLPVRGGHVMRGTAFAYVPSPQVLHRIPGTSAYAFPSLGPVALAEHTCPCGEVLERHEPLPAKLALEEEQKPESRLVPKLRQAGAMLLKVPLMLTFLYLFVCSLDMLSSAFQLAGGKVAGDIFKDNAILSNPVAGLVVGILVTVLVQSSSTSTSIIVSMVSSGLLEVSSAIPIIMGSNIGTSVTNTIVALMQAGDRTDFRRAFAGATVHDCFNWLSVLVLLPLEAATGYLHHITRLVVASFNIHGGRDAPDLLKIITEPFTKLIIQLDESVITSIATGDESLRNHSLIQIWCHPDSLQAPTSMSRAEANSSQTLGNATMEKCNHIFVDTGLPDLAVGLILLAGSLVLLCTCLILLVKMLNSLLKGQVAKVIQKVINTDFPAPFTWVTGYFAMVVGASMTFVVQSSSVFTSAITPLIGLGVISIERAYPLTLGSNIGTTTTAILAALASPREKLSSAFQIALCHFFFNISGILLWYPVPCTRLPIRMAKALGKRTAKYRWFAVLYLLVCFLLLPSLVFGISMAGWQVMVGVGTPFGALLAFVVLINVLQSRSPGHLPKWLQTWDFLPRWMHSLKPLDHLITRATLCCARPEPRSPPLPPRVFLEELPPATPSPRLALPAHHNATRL
Test: Npt2a activity cell based assay, membrane potential dye, CHO T-REx hNpt2a cells
Conditions: doxycycline-induced, depolarization by sodium phosphate influx, average or median values if tested more than once
Procedure, shortened: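 Cells were doxycycline-induced CHO T-REx hNpt2a, dye-loaded and pretreated 5 min at RT with 1 nM–50 μM compound in Na-free pH 7.4 buffer. IC50 was fit to the post/pre-trigger fluorescence ratio.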

Point of comparison: CCOC(=O)c1c(C)nn(-c2cc(Nc3c(C)c(-c4ccc(OC(F)(F)F)cc4)nn3CC3CC3)ncn2)c1C [Example 284, ethyl 1-[6-({1-(cyclopropylmethyl)-4-methyl-3-[4-(trifluoromethoxy)phenyl]-1H-pyrazol-5-yl}amino)pyrimidin-4-yl]-3,5-dimethyl-1H-pyrazole-4-carboxylate], IC50 25 nM. Against it:
- Cc1nn(-c2cc(Nc3nn(C)c(-c4ccc(F)cn4)c3C)ncn2)c(C)c1Cl [Example 479, 6-(4-chloro-3,5-dimethyl-1H-pyrazol-1-yl)-N-[5-(5-fluoropyridin-2-yl)-1,4-dimethyl-1H-pyrazol-3-yl]pyrimidin-4-amine] — within 1.5-fold, 18 nM
- CCc1c(Nc2cc(-n3nc(C)c(Cl)c3C)ncn2)nn(CC(F)F)c1-c1ccc(F)cc1 [Example 174, 6-(4-chloro-3,5-dimethyl-1H-pyrazol-1-yl)-N-[1-(2,2-difluoroethyl)-4-ethyl-5-(4-fluorophenyl)-1H-pyrazol-3-yl]pyrimidin-4-amine] — within 1.5-fold, 33 nM
- CCc1c(Nc2cc(-n3nc(C)c(CN4CC(F)C4)c3C)ncn2)nn(C)c1-c1ccc(F)cc1 [Example 296, N-[4-ethyl-5-(4-fluorophenyl)-1-methyl-1H-pyrazol-3-yl]-6-{4-[(3-fluoroazetidin-1-yl)methyl]-3,5-dimethyl-1H-pyrazol-1-yl}pyrimidin-4-amine] — 4.7-fold higher, 117 nM
- COC(C)c1c(C)nn(-c2cc(Nc3c(C)c(-c4ccc(F)cc4)nn3CC3CC3)ncn2)c1C (single isomer, unassigned) [Example 327, N-[1-(cyclopropylmethyl)-3-(4-fluorophenyl)-4-methyl-1H-pyrazol-5-yl]-6-{4-[1-methoxyethyl]-3,5-dimethyl-1H-pyrazol-1-yl}pyrimidin-4-amine] — 6.2-fold lower, 4 nM
- Cc1cc(C)n(-c2cc(Nc3n[nH]c(-c4ccc(C#N)cc4)c3C)ncn2)n1 [Example 135, 4-(3-{[6-(3,5-dimethyl-1H-pyrazol-1-yl)pyrimidin-4-yl]amino}-4-methyl-1H-pyrazol-5-yl)benzonitrile] — 28-fold higher, 700 nM
- Cc1nn(-c2cc(Nc3nn(C)c(-c4ccc(C(F)(F)F)nc4)c3C)ncn2)c(C)c1Cl [Example 553, 6-(4-chloro-3,5-dimethyl-1H-pyrazol-1-yl)-N-{1,4-dimethyl-5-[6-(trifluoromethyl)pyridin-3-yl]-1H-pyrazol-3-yl}pyrimidin-4-amine] — 3.5-fold lower, 7.2 nM
- COCCn1nc(-c2ccc(F)cc2)c(C)c1Nc1cc(-n2nc(C)cc2C(F)F)ncn1 [Example 527, 6-[5-(difluoromethyl)-3-methyl-1H-pyrazol-1-yl]-N-[3-(4-fluorophenyl)-1-(2-methoxyethyl)-4-methyl-1H-pyrazol-5-yl]pyrimidin-4-amine] — 2.8-fold lower, 9 nM
- CCOC(=O)c1c(C)nn(-c2cc(Nc3c(C)c(-c4ccc(C#N)cc4)nn3C)ncn2)c1C [Example 213, ethyl 1-(6-{[3-(4-cyanophenyl)-1,4-dimethyl-1H-pyrazol-5-yl]amino}pyrimidin-4-yl)-3,5-dimethyl-1H-pyrazole-4-carboxylate] — 12-fold lower, 2 nM
- CCc1c(Nc2cc(-n3ncc4c3CCC4)ncn2)n[nH]c1-c1ccc(F)cc1 [Example 27, 6-(5,6-dihydrocyclopenta[c]pyrazol-1 (4H)-yl)-N-[4-ethyl-5-(4-fluorophenyl)-1H-pyrazol-3-yl]pyrimidin-4-amine] — 18-fold higher, 460 nM
- CCOC(=O)c1c(C)nn(-c2cc(Nc3c(C)c(-c4ccc(F)cc4F)nn3C)ncn2)c1C [Example 363, ethyl 1-(6-{[3-(2,4-difluorophenyl)-1,4-dimethyl-1H-pyrazol-5-yl]amino}pyrimidin-4-yl)-3,5-dimethyl-1H-pyrazole-4-carboxylate] — 6-fold higher, 150 nM
- CCc1c(-c2ccc(F)cc2)n[nH]c1Nc1cc(-n2nc(C)cc2C(F)F)ncn1 [Example 2, 6-[5-(difluoromethyl)-3-methyl-1H-pyrazol-1-yl]-N-[4-ethyl-3-(4-fluorophenyl)-1H-pyrazol-5-yl]pyrimidin-4-amine] — 2.1-fold lower, 12 nM
- CCc1c(Nc2cc(-n3nc(C)c(C(=O)N4CCC(C(F)F)C4)c3C)ncn2)nn(C)c1-c1ccc(F)cc1 (stereo not shown) [Example 128, [3-(difluoromethyl)pyrrolidin-1-yl][1-(6-{[4-ethyl-5-(4-fluorophenyl)-1-methyl-1H-pyrazol-3-yl]amino}pyrimidin-4-yl)-3,5-dimethyl-1H-pyrazol-4-yl]methanone] — 52-fold higher, 1300 nM
- Cc1cc(C(F)F)n(-c2cc(Nc3c(C)c(-c4ccc(F)cn4)nn3CC3CC3)ncn2)n1 [Example 422, N-[1-(cyclopropylmethyl)-3-(5-fluoropyridin-2-yl)-4-methyl-1H-pyrazol-5-yl]-6-[5-(difluoromethyl)-3-methyl-1H-pyrazol-1-yl]pyrimidin-4-amine] — 9.6-fold higher, 240 nM
- COc1c(-c2ccc(C#N)cc2)nn(CC2CC2)c1Nc1cc(-n2nc(C)cc2C)ncn1 [Example 316, 4-[1-(cyclopropylmethyl)-5-{[6-(3,5-dimethyl-1H-pyrazol-1-yl)pyrimidin-4-yl]amino}-4-methoxy-1H-pyrazol-3-yl]benzonitrile] — 3.2-fold higher, 81 nM
- COC(C)c1c(C)nn(-c2cc(Nc3c(C)c(-c4ccc(F)cc4)nn3CC3CC3)ncn2)c1C (racemic) [Example 326, (±)-N-[1-(cyclopropylmethyl)-3-(4-fluorophenyl)-4-methyl-1H-pyrazol-5-yl]-6-{4-[1-methoxyethyl]-3,5-dimethyl-1H-pyrazol-1-yl}pyrimidin-4-amine (Racemic)] — 6.2-fold lower, 4 nM
- COCCn1nc(-c2ccc(C(F)F)cc2)c(C)c1Nc1cc(-n2nc(C)cc2C(F)F)ncn1 [Example 538, 6-[5-(difluoromethyl)-3-methyl-1H-pyrazol-1-yl]-N-{3-[4-(difluoromethyl)phenyl]-1-(2-methoxyethyl)-4-methyl-1H-pyrazol-5-yl}pyrimidin-4-amine] — 2.1-fold lower, 12 nM
- CCc1c(Nc2cc(-n3nc(C)c(Cl)c3C)ncn2)nn(CC2CC2)c1-c1ccc(F)cc1 [Example 144, 6-(4-chloro-3,5-dimethyl-1H-pyrazol-1-yl)-N-[1-(cyclopropylmethyl)-4-ethyl-5-(4-fluorophenyl)-1H-pyrazol-3-yl]pyrimidin-4-amine] — 21-fold higher, 520 nM
- COc1ccc(-c2nn(C)c(Nc3cc(-n4nc(C)c(Cl)c4C)ncn3)c2C)cn1 [Example 505, 6-(4-chloro-3,5-dimethyl-1H-pyrazol-1-yl)-N-[3-(6-methoxypyridin-3-yl)-1,4-dimethyl-1H-pyrazol-5-yl]pyrimidin-4-amine] — 48-fold higher, 1200 nM
- CCc1c(-c2ccc(F)cc2)nn(CCOCc2ccccc2)c1Nc1cc(-n2nc(C)cc2C)ncn1 [Example 32, N-{1-[2-(benzyloxy)ethyl]-4-ethyl-3-(4-fluorophenyl)-1H-pyrazol-5-yl}-6-(3,5-dimethyl-1H-pyrazol-1-yl)pyrimidin-4-amine] — 28-fold higher, 690 nM
- CNc1ccc(-c2nn(CCOC)c(Nc3cc(-n4nc(C)c(Cl)c4C)ncn3)c2C)cc1 [Example 521, 6-(4-chloro-3,5-dimethyl-1H-pyrazol-1-yl)-N-{1-(2-methoxyethyl)-4-methyl-3-[4-(methylamino)phenyl]-1H-pyrazol-5-yl}pyrimidin-4-amine] — 3.1-fold lower, 8 nM
- CCc1c(Nc2cc(-n3nc(C)c(C(C)(C)O)c3C)ncn2)n[nH]c1-c1ccc(F)cc1 [Example 181, 2-[1-(6-{[4-ethyl-5-(4-fluorophenyl)-1H-pyrazol-3-yl]amino}pyrimidin-4-yl)-3,5-dimethyl-1H-pyrazol-4-yl]propan-2-ol] — 60-fold higher, 1500 nM
